Experimental data taken from patent publication US20200131161A1, “NOVEL POCHONIOLIDE COMPOUND AND USE THEREOF” (THE KITASATO INSTITUTE, priority 2017, published 2020).

Key:
[1] = Acrylamide produced by Maillard reaction using a mixture of asparagine and glucose (Morinaga acrylamide EIA kit); conditions: compound at 6 mg/ml final concentration; heated in autoclave 121° C. 20 minutes; untreated sample 51 ng/ml
Experimental: An aqueous solution (0.25 ml) of 100 mg/ml glucose (Wako Pure Chemical Corporation) treated with Chelex 100 (Bio-Rad Laboratories, Inc.) and an aqueous solution (0.5 ml) of 50 mg/ml asparagine (Wako Pure Chemical Corporation) treated with Chelex 100 (Bio-Rad Laboratories, Inc.) were introduced into a 1.5-ml microtube. Pochoniolides A, B, and C dissolved in methanol to a fmal concentration of 6 mg/ml and dihydroquercetin (final concentration 10% methanol) as a positive control were added, and the total amount of the solution was adjusted to 1.0 ml with the addition of distilled water. After the resultant was heated in an autoclave at 121° C. for 20 minutes, the amount of acrylamide produced was measured with the use of Morinaga acrylamide EIA kit (Morinaga Institute of Biological Science, Inc.) in accordance with the protocols.

[2] = system: HeLaS3 cells, A549 cells, H1299 cells, HT29 cells, Pancl cells, Jurkat cells, HL60 cells, THP-1 cells; test: Cytotoxicity test in vitro, cell viability by WST-8; format: cell-based; conditions: at 100 μM, all eight human cell lines, culture for 2 days
Experimental: Cytotoxicity of the pochoniolides of the present invention on various cells was tested. Human cervical cancer-derived HeLaS3 cells, human lung cancer-derived A549 cells, human lung cancer-derived H1299 cells (not expressing p53), human colon adenocarcinoma HT29 cells, human pancreatic cancer […], human acute T cell leukemia-derived Jurkat cells, human promyelocyte leukemia HL60 cells, and human acute monocytic leukemia THP-1 cells were subjected to evaluation of cytotoxicity by measuring cell viability using WST-8 (Dojindo Laboratories). The cells that had reached 80% confluence were counted using a hemocytometer, and a cell suspension was prepared. The cell suspension was dispensed into each well of a 96-well microplate at 100 μl/well using multichannel pipettes. Only a medium was added to a blank (background) well in an amount of 100 μl. HeLaS3 cells, A549 cells, H1299 cells, HT29 cells, and […] cultured for 24 hours in a CO2-incubator, Jurkat cells, HL60 cells, and THP-1 cells were cultured for 1 to 2 hours in a CO2-incubator. Solutions of the compounds diluted 3-fold from 10 mM to 100 μM in methanol or dimethyl sulfoxide were prepared, and the resulting solutions were then added at 1 μl/well (final concentration: 100 μM to 1 μM). After culture was performed for 2 days, 10 μl of the WST-8 reagent was introduced into each well, culture was performed for 30 to 60 minutes, and the absorbance at 460 nm was measured. The cell viability was determined in accordance with the following equation. Cell viability (%)=[(As-Ab)/(Ac-Ab)]×100 • As: Absorbance of sample (a well containing cells, pochoniolide A, B, or C, and a WST-8 solution) • Ac: Absorbance of control (a well containing cells and a WST-8 solution without pochoniolide A, B, or C) • Ab: Absorbance of blank (a well containing a medium and a WST-8 solution without cells)

[3] = system: Bacillus subtilis ATCC 6633, Micrococcus luteus ATCC 9341, Escherichia coli NIHJKB213, Xanthomonas campestris pv. oryzae KB 88, Candida albicans KF1, Mucor …; format: cell-based
[4] = Effects for decreasing acrylamide in model food (french fries); conditions: test compound at final concentration of 1% applied to formed potatoes, fried in oil at 170 to 200 degrees for 1 minute; for concentration of acrylamide produced: control 7 ppm
Experimental: Pochoniolides B and C were evaluated in terms of effects of decreasing acrylamide in a model food (french fries) using dihydroquercetin as a positive control. Commercially available frozen french fries (raw) were thawed and a portion of 10 g was separated. The portion of 10 g was ground in a mortar and formed into individual homogeneous portions of 1 g each, followed by forming. The test compounds were dissolved in a small amount of ethanol to a final concentration of 1%. The ethanol solution was homogeneously applied to the formed potatoes. The potatoes were fried in oil at 170 to 200 degrees for 1 minute, and measurement of the acrylamide concentration was requested to Morinaga Institute of Biological Science, Inc. The results are shown in FIG. 7. While the concentration of acrylamide produced was 7 ppm with the addition of control sample, the concentration of acrylamide produced was 4 ppm with the addition of dihydroquercetin as a positive control. No effects of pochoniolide B for decreasing the amount of acrylamide production were observed. The concentration of acrylamide produced was 2 ppm in the group to which pochoniolide C was added.

[5] = Solubility (physicochemical properties); conditions: DMSO, acetone, water, methanol

Row | Compound | amount of acrylamide produced [1] [ng/mL] | cytotoxicity (cell viability) [2] | antibacterial activity (growth-inhibiting circle) [3] | concentration of acrylamide produced [4] [ppm] | Solubility [5] | effects for decreasing the amount of acrylamide production [4]
1 | O=C(O)CC1OC(=O)C=C1C1Oc2cc(O)cc(O)c2C(=O)C1O (stereo not shown) [pochoniolide C] | 18 | no toxicity | no antibacterial activity | 2 | easily soluble in DMSO and acetone, but hardly soluble in water and methanol | 
2 | O=C1c2c(O)cc(O)cc2O[C@H](c2ccc(O)c(O)c2)[C@H]1O [dihydroquercetin, reference compound] | 28 |  |  | 4 |  | 
3 | O=C(O)CC1OC(=O)C=C1c1coc2cc(O)cc(O)c2c1=O (stereo not shown) [pochoniolide A] | 53 | no toxicity | no antibacterial activity |  | easily soluble in DMSO and acetone, but hardly soluble in water and methanol | 
4 | pochoniolide B | 9 | no toxicity | no antibacterial activity |  | easily soluble in DMSO and acetone, but hardly soluble in water and methanol | No effects
